Results published in patent publication US7893094B2, “Amphiphilic pyridinium compounds, method of making and use thereof” (The Henry M. Jackson Foundation for the Advancement of …, priority 2003, dated 2011).
Read-outs that look alike come from different tables or passages of the source.

Tested on: IL-8 secretion from CF IB-3 cells
Experiment: Suppression of spontaneously-elevated (constitutive) IL-8 secretion in IB-3 CF lung epithelial cells, IL-8 ELISA normalised to DNA
Format: cell-based
Conditions: for loss of potency: IL-8 secretion, relative to the most potent analogue, Compound 3
Protocol: The CF lung epithelial cells IB3 and S9 have been previously described [Zeitlin et al., 1991; Eidelman et al., 2001a)]. Both […] and S9 cells were grown in serum-free LHC-8 medium (Biofluids), formulated without gentimycin. CF tracheal epithelial cells (2CFTE29o-) were obtained from University of Vermont. The latter cells were grown in EMEM (Biofluids), supplemented with 10% fetal bovine serum (FBS) and 1% Penicillin G-Streptomycin.
Initial assays for dug effects in the screening paradigm were performed in duplicate at 10, 3, 1, and 0.3 μM concentrations on IB-3 cells grown in 96 well microtiter plates. Each individual plate contained IB-3 and IB-3/S9 cells to set the boundary conditions of the assay. CPX and DAX, 5 μM each, were included in separate wells as positive controls. “Hits” in the screen were chosen on the basis of at least a 50% reduction in constitutive IL-8 secretion. Following a positive retest, candidate compounds were taken off-line for more detailed analysis under the exact same assay conditions. […] In most circumstances we use a maximum final solvent concentration of 0.1% DMSO or 0.01% ETOH.
The details of this assay have been described in a previous publication (Eidehman et la., 2001 a). Briefly, IB-3 cells are grown in 96 well microtiter plates to 80% confluency. Drugs, diluted in LHC-8 medium at the given concentrations, are added, and the cells allowed to incubate for an additional 24 hours. To initiate the experiment, cells are washed with fresh LHC-8 medium, and then incubated for an additional 16 hours in the same medium supplemented with drug. At the end of the time period, the supernatant solutions are collected and assayed for IL-8 by and ELISA assay. Alternatively, the samples are immediately frozen at −80° C. […] The IL-8 ELISA assay was assembled from bulk materials purchased from R&D, and performed exactly according to the manufacturers specifications. To detect possible drug toxicity on cells, as well as normalize to total cells per well, we measure the double stranded DNA content of cells attached to the plate after removal of supernatant solutions for IL-8 assay. Cells remaining on the plate are then fixed with 10% formalin for 30 minutes at room temperature before being incubated with propidium iodide (kit from Boehringer Mannheim). Propidium iodide content in each well is then measured with an automated fluorescence plate reader (FLUOstar Optima, MBG Lab Technologies). Final IL-8 data are calculated as a ratio of secreted IL-8 to DNA for each well. On occasion, cell proliferation assays are also carried out using the XTT assay (Roche).

[1] = inhibition of IL-8 secretion from CF IB-3 cells, Table 3 prints no unit (b104 gives μM for Compound 3), read-out: IC50

Compound	IC50 [1]	activity on IL-8 secretion/production, in words	further results
R-8-Pyridinium-n-butyl α-methyl-2-phenylacetate iodide [Compound 1]	> 30 µM	–	–
8-Pyridinium-n-octyl benzoate iodide [Compound 11]	> 30 µM	–	–
C[C@H](OCc1ccccc1)C(=O)OCCCCCCCC[n+]1ccccc1 [Compound 10, S-8-Pyridinium-n-octyl α-benzyloxy-2-propionate iodide]	> 30 µM	–	–
CC(C(=O)OCCCCCCCC[n+]1ccccc1)c1ccc(N)cc1.I.[I-] (stereo not drawn) [Compound 17, 8-Pyridinium-n-octyl α-methyl-2-[4-ammonium-phenyl]acetate iodide]	> 30 µM	eliminated activity	–
R-8-Pyridinium-n-decyl α-methyl-2-phenylacetate iodide [Compound 4]	2.52 ± 0.39 µM	–	–
S-8-(4-n-Prolpylpyridinium)-n-octyl α-methyl-2-(4-[2-methylpropyl]benzene)acetate bromide [Compound 19]	3.3 ± 0.5 µM	–	–
R-8-Pyridinium-n-octyl α-hydroxy-α-methyl-2-phenylacetate iodide [Compound 6]	> 30 µM	failed to restore the activity	–
R-8-Pyridinium-n-octyl α-methyl-2-phenylacetate iodide [Compound 3]	–	–	IC50 (IB-3 CF cells, read-out: IC50, inhibition of IL-8 secretion): 0.35 µM; stereoselectivity of action in favor of the (R)-isomer (IL-8 production, Compound 3 (R) versus its enantiomer Compound 5): > 70 fold
8-(3-carboxyamido-pyridinium)-n-octylα-methyl-2-(4[2-methylpropyl]benzene)-acetate iodide [Compound 18]	5.56 ± 0.98 µM	–	–
S-8-Pyridinium-n-octyl α-methoxy-2-phenylacetate iodide [Compound 9]	> 30 µM	failed to restore the activity	–
CC(C)Cc1ccc([C@H](C)C(=O)OCCCCCCCC[N+]2(C)CCOCC2)cc1.[Br-] [Compound 21, S-8-[N-Methylmorpholinium-n-octyl α-methyl-2-(4]2-methylpropyl]benzene)acetate bromide]	24 ± 1 µM	–	–
8-Pyridinium-n-octyl propionate iodide [Compound 7]	12 ± 0.8 µM	–	loss of potency: 34 fold
R-8-Pyridinium-n-octyl 2-hydroxy-3-phenylpropionate iodide [Compound 12]	> 30 µM	no activity was evident	–
R-8-Pyridinium-n-octyl α-ethyl-2-phenylacetate iodide [Compound 8]	3.16 ± 0.52 µM	eliminated the activity	–
S-8-Pyridinium-n-octyl α-methyl-2-phenylacetate iodide [Compound 5]	> 25 µM	much less active	–
CC(C(=O)OCCCCCCCC[n+]1ccccc1)c1ccc(NC(=O)OC(C)(C)C)cc1.[I-] (stereo not drawn) [Compound 16]	4.6 ± 0.9 µM	retention of the activity	–
R-8-Pyridinium-n-hexyl α-methyl-2-phenylacetate iodide [Compound 2]	> 30 µM	–	–
S,S-1.8-di((α-methyl 2-(4-[2-methylpropyl]phenyl acetoxy)-n-octane [Compound 22]	> 30 µM	eliminated the activity	–
S-8-Pyridinium-n-octyl α-methyl-2-(4-[2-methylpropyllbenzeneacetate bromide [Compound 15]	2.2 ± 0.8 µM	–	loss of potency: 6 fold
S-8-(4-2-hydroxy-ethyl)pyridinium)-n-octyl α-methyl-2-(4-[2-methylpropyl]benzene)acetate bromide [Compound 20]	18 ± 0.9 µM	–	–
S-8-Pyridinium-n-octyl 2-hydroxy-3-phenylpropionate iodide [Compound 13]	> 30 µM	no activity was evident	–
